Laboratory results published in paper PMC12040169 (PLOS Biology, 2025).

Assay: in vitro
Settings: human, hela cells, % viability

Structure (SMILES)	viability at 28.5 h, 10 µM [%]
COc1ccc(-c2ccc(-c3cc(C(=O)O)c4ccccc4n3)o2)cc1 [CBK300542]	75.5
CCc1ccc(-c2ccc(-c3cc(C(=O)O)c4cc(Br)ccc4n3)o2)cc1 [CBK300543]	90.6
CC(=O)N1CCN(c2ccc(NC(=O)C3C(C(=O)O)C3(C)C)cc2)CC1 (stereo not drawn) [CBK300545]	88.6
O=S(=O)(O)c1cccc2cccc(I)c12 [CBK301197N]	89.1
O=[N+]([O-])c1ccc(Cc2cc[n+](-c3nc4ccccc4nc3[N-]S(=O)(=O)c3ccc([N+](=O)[O-])cc3)cc2)cc1 [CBK301201]	84.3
OCCN(CC#CC(O)(c1ccccc1)c1cccc(F)c1)CCO (stereo not drawn) [CBK301210C]	91.2
CCc1ccc(CN2CCN(C(=O)c3ccncc3)CC2)cc1 [CBK301211G]	92.7
COc1cc(C(=O)N2CCN(Cc3c[nH]c4ccccc34)CC2)cc(OC)c1OC [CBK301212G]	77.7
Brc1ccc2c(c1)[C@H]1C=CC[C@H]1[C@@H](c1ccccc1)N2 [CBK303238]	89
O=c1[nH]c2c(c(=O)[nH]1)[C@H]1[C@H](O)[C@H](O)C[C@H]1[C@@H](c1ccccc1)N2 [CBK303239]	88.1
O=C(O)[C@H]1Nc2ccc(Br)cc2[C@H]2[C@H](O)[C@H](O)C[C@H]21 [CBK303242]	115
CC(C)(C)C1=CC2=NC3(CCC3)[C@@H]3C[C@@H](O)[C@@H](O)[C@@H]3N2O1 [CBK303243]	104
CC(C)(C)C1=CC2=NC3(CCOCC3)[C@@H]3C[C@@H](O)[C@@H](O)[C@@H]3N2O1 [CBK303244]	90.1
CC(C)(C)C1=CC2=NC3(CCCC3)[C@@H]3C[C@@H](O)[C@@H](O)[C@@H]3N2O1 [CBK303245]	95.1
CC(C)(C)C1=CC2=NC3(CCS(=O)(=O)CC3)[C@@H]3C[C@@H](O)[C@@H](O)[C@@H]3N2O1 [CBK303247]	92
Oc1nc(O)c2c(n1)NC1(CCC1)[C@@H]1C[C@@H](O)[C@@H](O)[C@H]21 [CBK303249]	91.4
Cn1c2c(c(=O)n(C)c1=O)[C@H]1[C@H](O)[C@H](O)C[C@H]1C1(CCC1)N2 [CBK303250]	93.6
Cc1nsc2c1[C@H]1[C@H](O)[C@H](O)C[C@H]1C1(CCC1)N2 [CBK303258]	100
CC(C)(C)C1=CC2=NC3(CCC3)C3C[C@@](C)(O)[C@@H](O)[C@@H]3N2O1 (stereo partly drawn) [CBK303263]	112
Cn1c2c(c(=O)n(C)c1=O)[C@@H]1C(C[C@](O)(COCc3ccccc3)[C@H]1O)C1(CCC1)N2 (stereo partly drawn) [CBK303265]	116
Cc1noc2c1[C@H]1[C@H](O)[C@H](O)C[C@H]1C1(CCC1)N2 [CBK303266]	111

Structure (SMILES)	viability at 28.5 h, 10 µM [%]
Cc1ccc(CC2CCCN(C(=O)NCc3cnn(C)c3)C2)cc1 (stereo not drawn) [CBK303990]	91.8
CNS(=O)(=O)c1cccc(C(=O)N(C)Cc2ccsc2)c1 [CBK303993]	113
CC1CN(Cc2cccc(CNc3ncccc3C#N)c2)CCO1 (stereo not drawn) [CBK303994]	95.7
O=C(CN1CCn2ccnc2C1)N(Cc1ccccc1F)C1CC1 [CBK303995]	89.6
CCn1cnnc1C1CCN(C(=O)c2ccc(C)c(Cl)c2)CC1 [CBK303997]	94.9
Cc1nnc(CN(C)C2CCN(CCCc3ccccc3)C2)n1C (stereo not drawn) [CBK304000]	115
N#CCCN(Cc1cccnc1)C(=O)Cc1noc2ccccc12 [CBK304001]	113
CCc1nc(CC(=O)NC(C)C(O)c2ccc(F)cc2)cs1 (stereo not drawn) [CBK304003]	86.7
Cc1nc(C)n(CC2CCCN2Cc2cn3ccccc3c2C#N)n1 (stereo not drawn) [CBK304006]	91
Cc1nc(C)n(CC2CCCN(Cc3cn4c(C)cccc4n3)C2)n1 (stereo not drawn) [CBK304007]	97.7
COCCCNC(=O)CN1CCCCC1Cn1nc(C)cc1C (stereo not drawn) [CBK304009]	104
Cc1nc(S(=O)(=O)Cc2nccn2C)n(CC2CCCO2)c1C (stereo not drawn) [CBK304012]	87
c1ccc(C(NCc2cnc(-c3ncccn3)s2)C2CCC2)cc1 (stereo not drawn) [CBK304013]	81.5
N#CCCN(Cc1ccco1)C(=O)c1cccc(NC(=O)C2CC2)c1 [CBK304014]	99.5
Cc1ccn2ncc(C(=O)N3CCCCCC3c3ccco3)c2n1 (stereo not drawn) [CBK304015]	111
CCc1nc2ccccc2n1CC(=O)N(C)C(C)c1cccnc1 (stereo not drawn) [CBK304017]	110
Cc1c(C(C)NCC2CCCC2O)cnn1-c1ccc(C#N)cc1 (stereo not drawn) [CBK304019]	94.5
CCOC(=O)C1CCCN(Cc2cc(F)cc(C(C)=O)c2O)C1 (stereo not drawn) [CBK304020]	87.1
N#Cc1ccncc1NCc1ccccc1CN1CCCC1CO (stereo not drawn) [CBK304021]	85
c1ccc(C(NCc2cnc(C3CCC3)s2)C2CCCC2)nc1 (stereo not drawn) [CBK304022]	88.6
CN(C(=O)NC1CCCc2c1cnn2CCO)c1ccccc1F (stereo not drawn) [CBK304024]	109

Structure (SMILES)	viability at 28.5 h, 10 µM [%]
Cn1c(C2CC2)nc2c1CCN(Cc1cc(=O)n(C)c(=O)n1C)C2 [CBK304025]	115
Cc1nc(C)n(CC2CCCN(Cc3cn4ccccc4n3)C2)n1 (stereo not drawn) [CBK304028]	88.3
Cc1nnc(SCCN2CCOC2=O)n1CCc1cccs1 [CBK304029]	93.7
CCC(c1ccc(F)cc1F)N1CCN(Cc2nc(C)no2)CC1 (stereo not drawn) [CBK304032]	103
Cc1cccn2cc(CCNC(=O)N3CCOCC3C3CC3)nc12 (stereo not drawn) [CBK304033]	104
CCOC(=O)c1cnn(C2CCCN(Cc3cncs3)C2)c1 (stereo not drawn) [CBK304039]	94.7
Cc1cc(C)n(CC2CCCCN2C(=O)COc2cccnc2)n1 (stereo not drawn) [CBK304040]	105
Cc1cnn(CC2CCCCN2CC(=O)NCc2ccccn2)c1 (stereo not drawn) [CBK304041]	110
CCOC(=O)c1cnn(C2CCCN(Cc3cn(C)nc3C)C2)c1 (stereo not drawn) [CBK304044]	89.2
CCNc1ncc(C(=O)N2CCC(Nc3cccnc3)CC2)s1 [CBK304047]	99.6
CC(C)(C)OC(=O)N1CCCC(NC(CO)c2ccco2)CC1 (stereo not drawn) [CBK304049]	101
N#CCCN(Cc1ccco1)C(=O)c1ccc(OCC2CC2)cc1 [CBK304051]	85
Cc1nc(CN(C)C2CCN(Cc3ccc4c(c3)CCC4)C2)no1 (stereo not drawn) [CBK304052]	76.5
Cc1c(C(C)NCC2CCN(C)CC2)cnn1-c1ccc(C#N)cc1 (stereo not drawn) [CBK304058]	97.3
O=C(Cn1cnc(NCc2cscn2)n1)N1CCCCCC1 [CBK304061]	98
Cc1c(C(C)NCCc2nnc[nH]2)cnn1-c1ccc(C#N)cc1 (stereo not drawn) [CBK304063]	98.1
CCc1nc2ccccc2n1CC(=O)N(Cc1cccnc1)C1CC1 [CBK304064]	107
CC(Oc1ccc(C#N)cc1)C(=O)NCC(C)(C)N1CCOCC1 (stereo not drawn) [CBK304066]	90
Cc1nc(CN2CCCC(NCc3cccc4ccccc34)C2)no1 (stereo not drawn) [CBK304068]	71.4
Cc1nnc(N2CCN(Cc3sccc3Cl)CC2)nc1C [CBK304075]	93.7
Cc1ccc(C#N)c(NCc2ccccc2CN2CCCC2CO)n1 (stereo not drawn) [CBK304076]	75.5
